Test results: US20230221325A1, “SOLUBLE CD28 LEVELS AFTER IMMUNOTHERAPY” (BIOND BIOLOGICS LTD., priority 2019, published 2023)

Experiments:
[1] = test system: CMV-stimulated PBMC; test: CMV activation of PBMCs for the generation of soluble CD28 (ELISA); format: cell-based, human; details: 7 days CMV stimulation, with anti-PD-1 (Keytruda) 5 μg/mL, inhibitor 1 μM
[2] = test system: SEB stimulated human PBMC; test: SEB activation of PBMCs for the generation of soluble CD28 (ELISA); format: cell-based
[3] = test system: melanoma patients; test: Survival of melanoma patients on anti-PD1 therapy by sCD28 level before therapy; format: in vivo, human
Method: To further understand the impact of sCD28 levels on cancer progression during immunotherapy, more than 100 serum samples from melanoma patients prior to initiation of anti-PD1 therapy (Nivolumab, NCT01176461) were tested for sCD28 levels by ELISA. Survival was monitored throughout therapy and a survival function was plotted comparing subjects with high and low levels of sCD28 before therapy (FIG. 1).

CNC(=O)[C@@H](NC(=O)[C@H](CCCc1ccccc1)[C@H](C)N(O)C=O)C(C)(C)C [GI254023X]
sCD28 increase caused by anti-PD-1 [1]: abrogated the sCD28 increase caused by immunotherapy

Keytruda: Anti-PD-1 (Keytruda, Merck)
sCD28 in the media (increase induced by SEB) ([2]; PBMCs from two healthy donors, SEB for 8 days, anti-PD-1 5 μg/mL vs isotype control): enhanced | sCD28 increase caused by the immunotherapy, significance ([2]; days 6-8, vs isotype control): statistically significant

Nivolumab: anti-PD1 therapy (NCT01176461)
median survival ([3]; subjects with high levels of sCD28 before therapy): 514 days | median survival ([3]; subjects with low levels of sCD28 (below 2 ng/mL) before therapy): 659 days
